# Reference: PubChem BioAssay (NCI)
#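 96-well plates; 48 h exposure; 5 concentrations. Endpoints by linear interpolation between flanking doses. Not reached: highest tested concentration assigned. Here, GI50 denotes the concentration required for 50% inhibition of growth. TGI denotes the concentration required for complete inhibition of growth.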
# Tests used:
# Assay in all cases: inhibition of tumour cell growth, NCI panel, 48 h
# [1] = tested on: HT29 colon
# [2] = tested on: HCT-116 colon
# [3] = tested on: DLD-1 colon
# [4] = tested on: MOLT-4 leukemia
# [5] = tested on: CCRF-CEM leukemia
# [6] = tested on: OVCAR-3 ovarian
# [7] = tested on: SF-295 CNS
# [8] = tested on: KM12 colon
# [9] = tested on: HL-60(TB) leukemia
# [10] = tested on: SR leukemia
# [11] = tested on: HCT-15 colon
# [12] = tested on: HOP-18 NSCLC
# [13] = tested on: 786-0 renal
# [14] = tested on: MALME-3M melanoma
# [15] = tested on: RXF 393 renal
# [16] = tested on: NCI-H226 lung
# [17] = tested on: HOP-62 NSCLC
# [18] = tested on: HOP-92 NSCLC
# [19] = tested on: M14 melanoma
# [20] = tested on: ACHN renal
# [21] = tested on: SNB-75 CNS
# [22] = tested on: SK-MEL-5 melanoma
# [23] = tested on: IGROV1 ovarian
# [24] = tested on: SK-OV-3 ovarian
# [25] = tested on: SF-268 CNS
# [26] = tested on: KM20L2 colon
# [27] = tested on: OVCAR-4 ovarian
# [28] = tested on: OVCAR-8 ovarian
# [29] = tested on: OVCAR-5 ovarian
# [30] = tested on: RPMI-8226 leukemia
# [31] = tested on: SW-620 colon
# [32] = tested on: TK-10 renal
# [33] = tested on: SK-MEL-2 melanoma
# [34] = tested on: LOX IMVI melanoma
# [35] = tested on: EKVX NSCLC
# [36] = tested on: K-562 leukemia
# [37] = tested on: UACC-257 melanoma
# [38] = tested on: UACC-62 melanoma
# [39] = tested on: A549 NSCLC
# [40] = tested on: HCC-2998 colon
# [41] = tested on: SNB-78 CNS
# [42] = tested on: SN12C renal
# [43] = tested on: DMS 273 small cell lung
# [44] = tested on: UO-31 renal
# [45] = tested on: NCI-H460 lung
# [46] = tested on: SF-539 CNS
# [47] = tested on: LXFL 529 NSCLC
# [48] = tested on: A498 renal
# [49] = tested on: SK-MEL-28 melanoma
# [50] = tested on: U251 CNS
# [51] = tested on: COLO 205 colon
# [52] = tested on: SNB-19 CNS
# [53] = tested on: NCI-H23 lung
# [54] = tested on: DMS 114 small cell lung
# [55] = tested on: M19-MEL melanoma
# [56] = tested on: XF 498 CNS
# [57] = tested on: CAKI-1 renal
structure (smiles),measurement,setting,value
CC/C(=C(/CC)c1ccc(OP(=O)([O-])[O-])cc1)c1ccc(OP(=O)([O-])[O-])cc1.N.N.N.N.[Pt+4].[Pt+4],GI50,[1],16.9 µM
same,TGI,[1],90.3 µM
same,GI50,[2],5.66 µM
same,TGI,[2],> 100 µM
same,GI50,[3],9.51 µM
same,TGI,[3],> 100 µM
same,GI50,[4],1.09 µM
same,TGI,[4],19.5 µM
same,GI50,[5],0.898 µM
same,TGI,[5],> 100 µM
same,GI50,[6],2.49 µM
same,TGI,[6],8.89 µM
same,GI50,[7],1.91 µM
same,TGI,[7],12.2 µM
same,GI50,[8],22 µM
same,TGI,[8],> 100 µM
same,GI50,[9],0.518 µM
same,TGI,[9],16.4 µM
same,GI50,[10],1.28 µM
same,TGI,[10],> 100 µM
same,GI50,[11],11.8 µM
same,TGI,[11],45.4 µM
same,GI50,[12],59 µM
same,TGI,[12],> 100 µM
same,GI50,[13],4.77 µM
same,TGI,[13],> 100 µM
same,GI50,[14],2.13 µM
same,TGI,[14],6.02 µM
same,GI50,[15],2.4 µM
same,TGI,[15],6.76 µM
same,GI50,[16],2.31 µM
same,TGI,[16],4.96 µM
same,GI50,[17],1.75 µM
same,TGI,[17],13.6 µM
same,GI50,[18],3.43 µM
same,TGI,[18],8.93 µM
same,GI50,[19],1.63 µM
same,TGI,[19],6.87 µM
same,GI50,[20],2.08 µM
same,TGI,[20],10.9 µM
same,GI50,[21],1.24 µM
same,TGI,[21],7.4 µM
same,GI50,[22],2.22 µM
same,TGI,[22],9.34 µM
same,GI50,[23],5.36 µM
same,TGI,[23],53.6 µM
same,GI50,[24],3.85 µM
same,TGI,[24],17 µM
same,GI50,[25],1.73 µM
same,TGI,[25],16.6 µM
same,GI50,[26],26.1 µM
same,TGI,[26],> 100 µM
same,GI50,[27],1.95 µM
same,TGI,[27],7.54 µM
same,GI50,[28],4.71 µM
same,TGI,[28],> 100 µM
same,GI50,[29],6.98 µM
same,TGI,[29],77.8 µM
same,GI50,[30],4.19 µM
same,TGI,[30],> 100 µM
same,GI50,[31],5.19 µM
same,TGI,[31],62.2 µM
same,GI50,[32],4.73 µM
same,TGI,[32],> 100 µM
same,GI50,[33],13.1 µM
same,TGI,[33],> 100 µM
same,GI50,[34],2.08 µM
same,TGI,[34],11.9 µM
same,GI50,[35],7.77 µM
same,TGI,[35],41.9 µM
same,GI50,[36],4.63 µM
same,TGI,[36],> 100 µM
same,GI50,[37],2.99 µM
same,TGI,[37],10.1 µM
same,GI50,[38],0.901 µM
same,TGI,[38],5.15 µM
same,GI50,[39],2.45 µM
same,TGI,[39],8.43 µM
same,GI50,[40],11.6 µM
same,TGI,[40],24 µM
same,GI50,[41],2.3 µM
same,TGI,[41],6.81 µM
same,GI50,[42],3.93 µM
same,TGI,[42],45.7 µM
same,GI50,[43],2.17 µM
same,TGI,[43],18.9 µM
same,GI50,[44],4.3 µM
same,TGI,[44],25.4 µM
same,GI50,[45],0.933 µM
same,TGI,[45],7.62 µM
same,GI50,[46],3.51 µM
same,GI50,[47],14 µM
same,TGI,[47],31.6 µM
same,GI50,[48],27.5 µM
same,TGI,[48],61.1 µM
same,GI50,[49],2.07 µM
same,TGI,[49],6.28 µM
same,GI50,[50],0.594 µM
same,TGI,[50],2.12 µM
CCOC(=O)C12CN(C34CC5CC(CC(C5)C3)C4)CC(C(=O)OCC)(C1=O)C(c1ccccc1)OC2c1ccccc1 (centres undefined),TGI,[1],> 100 µM
same,TGI,[51],> 100 µM
same,TGI,[3],> 100 µM
same,TGI,[4],> 100 µM
same,TGI,[52],> 100 µM
same,TGI,[5],> 100 µM
same,TGI,[6],> 100 µM
same,TGI,[7],> 100 µM
same,TGI,[8],> 100 µM
same,TGI,[9],> 100 µM
same,TGI,[11],> 100 µM
same,TGI,[13],> 100 µM
same,TGI,[14],> 100 µM
same,TGI,[15],> 100 µM
same,TGI,[53],> 100 µM
same,TGI,[16],> 100 µM
same,TGI,[17],> 100 µM
same,TGI,[18],9.73 µM
same,TGI,[19],> 100 µM
same,TGI,[20],> 100 µM
same,TGI,[21],> 100 µM
same,TGI,[22],> 100 µM
same,TGI,[23],> 100 µM
same,TGI,[24],> 100 µM
same,TGI,[25],> 100 µM
same,TGI,[26],> 100 µM
same,TGI,[27],> 100 µM
same,TGI,[28],> 100 µM
same,TGI,[29],> 100 µM
same,TGI,[30],> 100 µM
same,TGI,[54],> 100 µM
same,TGI,[31],> 100 µM
same,TGI,[32],> 100 µM
same,TGI,[33],> 100 µM
same,TGI,[34],> 100 µM
same,TGI,[35],> 100 µM
same,TGI,[36],> 100 µM
same,TGI,[37],> 100 µM
same,TGI,[38],> 100 µM
same,TGI,[39],> 100 µM
same,TGI,[40],> 100 µM
same,TGI,[41],> 100 µM
same,TGI,[55],> 100 µM
same,TGI,[56],> 100 µM
same,TGI,[43],> 100 µM
same,TGI,[44],> 100 µM
same,TGI,[45],> 100 µM
same,TGI,[47],> 100 µM
same,TGI,[48],> 100 µM
same,TGI,[49],> 100 µM
same,TGI,[50],> 100 µM
O=c1[nH]cnc2c1nnn2C1C=C(CO)C(O)C1O (centres undefined),TGI,[1],> 100 µM
same,TGI,[2],> 100 µM
same,TGI,[51],> 100 µM
same,TGI,[3],> 100 µM
same,TGI,[4],> 100 µM
same,TGI,[52],> 100 µM
same,TGI,[5],> 100 µM
same,TGI,[6],> 100 µM
same,TGI,[7],> 100 µM
same,TGI,[8],> 100 µM
same,TGI,[10],> 100 µM
same,TGI,[11],> 100 µM
same,TGI,[12],> 100 µM
same,TGI,[13],> 100 µM
same,TGI,[15],> 100 µM
same,TGI,[53],> 100 µM
same,TGI,[16],> 100 µM
same,TGI,[17],> 100 µM
same,TGI,[18],> 100 µM
same,TGI,[19],> 100 µM
same,TGI,[20],> 100 µM
same,TGI,[21],> 100 µM
same,TGI,[22],> 100 µM
same,TGI,[23],> 100 µM
same,TGI,[24],> 100 µM
same,TGI,[25],> 100 µM
same,TGI,[26],> 100 µM
same,TGI,[27],> 100 µM
same,TGI,[28],> 100 µM
same,TGI,[29],> 100 µM
same,TGI,[30],> 100 µM
same,TGI,[54],> 100 µM
same,TGI,[32],> 100 µM
same,TGI,[33],> 100 µM
same,TGI,[34],81.5 µM
same,TGI,[35],> 100 µM
same,TGI,[36],> 100 µM
same,TGI,[37],> 100 µM
same,TGI,[38],> 100 µM
same,TGI,[39],> 100 µM
same,TGI,[40],> 100 µM
same,TGI,[41],> 100 µM
same,TGI,[42],> 100 µM
same,TGI,[55],> 100 µM
same,TGI,[56],> 100 µM
same,TGI,[43],60.1 µM
same,TGI,[44],> 100 µM
same,TGI,[45],> 100 µM
same,TGI,[46],> 100 µM
same,TGI,[47],> 100 µM
same,TGI,[48],> 100 µM
same,TGI,[49],> 100 µM
same,TGI,[57],> 100 µM
same,TGI,[50],> 100 µM
